We go through one compound from PMC11413854, “Reversible Control of Native GluN2B-Containing NMDA Receptors with Visible Light” (ACS Chemical Neuroscience, 2024).

One may read the inhibition as the drop in the measured response relative to a control, in per cent.

Values joined by “and” are separate entries in the source; they are usually repeats but may differ in a detail not shown here. Equal entries are not always repeated. Where two headings read alike, the source gives them in different places.

One assay concerns the target T1, GluN1/GluN2D (Rattus norvegicus, UniProt P35439+Q62645).
T1 construct: expressed in transfected cells; host or cells: Xenopus laevis oocytes (nuclear cDNA injection)
As to the kind of experiment: TEVC on Xenopus oocytes, GluN1/GluN2D diheteromers. The assay is classed as cell-based. As to conditions: 1 µM trans-OptoNAM-3 (dark); listed as trans-OptoNAM-3. An excerpt: NMDARs exist as multiple subtypes in the brain that are formed by the combination of two GluN1 and either two identical (diheteromers) or different (triheteromers) GluN2 (GluN2A-D) subunits.[1] We assessed the selectivity of trans-OptoNAM-3 (dark PSS) for the other NMDAR subtypes.
(§1) We used cDNA coding for rat GluN1–1a (named GluN1 herein) (GenBank: U08261.1), rat GluN2A (GenBank: D13211.1), mouse GluN2B (GenBank: D10651.2), rat GluA1 flop (GenBank: M36418.2), and rat Myc-GluA2(Q)-flip (GenBank: AF164344.1) cloned into pcDNA3-based expression plasmids. GluK2 (GenBank: Z11548.1) corresponds to the fully RNA-edited version.[80] The GluN2B-ΔNTD construct is from ref[45] and GluN2B–N615K is from ref[81]. Single mutants GluN2B-Q110G and GluN1-L135H were from ref[19]. The GluA2 cDNA contains a Myc tag ([…]) fused between the signal peptide and the N-terminus sequences, and the GluA2 subunit is […] for its Q/R/N site (GluA2(Q)) to allow permeation of homomeric GluA2 receptors.[2] cDNAs coding for rat GluN2C (GenBank: M91563.1) and GluN2D subunits (GenBank: L31611.1) were in prK5 plasmids.
Expression of recombinant NMDA receptors was obtained by oocyte nuclear coinjection of 37 nL of a mixture of cDNAs (at 30 ng/μL) coding for GluN1–1a and various GluN2 subunits (ratio 1:1). The protocol in ref[43] was followed for the expression of GluN1/GluN2A/GluN2B triheteromers. […]

The target of the next assay is T2, GluA1 AMPA receptors (Rattus norvegicus, UniProt P19490).
T2 construct: expressed in transfected cells; host or cells: Xenopus laevis oocytes (mRNA injection)
T2 sequence (P19490 19-907): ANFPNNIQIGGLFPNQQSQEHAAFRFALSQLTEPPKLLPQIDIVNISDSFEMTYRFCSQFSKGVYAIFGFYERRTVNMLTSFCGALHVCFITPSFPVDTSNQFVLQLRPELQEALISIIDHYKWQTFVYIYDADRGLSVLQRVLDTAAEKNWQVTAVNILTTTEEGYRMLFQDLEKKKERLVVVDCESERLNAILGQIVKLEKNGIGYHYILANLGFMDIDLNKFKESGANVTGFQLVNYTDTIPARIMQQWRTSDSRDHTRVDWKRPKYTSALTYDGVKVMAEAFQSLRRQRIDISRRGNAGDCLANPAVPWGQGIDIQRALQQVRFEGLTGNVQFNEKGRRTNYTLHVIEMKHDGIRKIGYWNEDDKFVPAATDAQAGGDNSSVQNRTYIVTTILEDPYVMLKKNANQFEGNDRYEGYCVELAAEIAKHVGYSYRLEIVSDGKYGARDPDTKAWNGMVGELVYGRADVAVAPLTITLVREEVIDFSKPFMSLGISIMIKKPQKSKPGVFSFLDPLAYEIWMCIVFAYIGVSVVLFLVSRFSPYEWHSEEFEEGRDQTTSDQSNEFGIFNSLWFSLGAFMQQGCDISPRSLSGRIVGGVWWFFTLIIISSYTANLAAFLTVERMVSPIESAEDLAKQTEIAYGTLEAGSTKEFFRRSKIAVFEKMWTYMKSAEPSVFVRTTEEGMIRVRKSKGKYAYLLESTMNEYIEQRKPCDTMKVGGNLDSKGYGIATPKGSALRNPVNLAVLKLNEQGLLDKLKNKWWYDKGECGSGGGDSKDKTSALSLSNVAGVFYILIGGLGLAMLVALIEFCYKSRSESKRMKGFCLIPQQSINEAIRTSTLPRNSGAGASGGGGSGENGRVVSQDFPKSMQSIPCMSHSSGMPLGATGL
As to the kind of experiment: TEVC on Xenopus oocytes, GluA1 AMPA receptors. The format is cell-based. As to conditions: for Inhibition, individual values: GluA1, single cells.
Excerpt: as §1
The expression of recombinant GluA1, GluA2(Q), and GluK2 receptors was obtained by oocyte injection of 50 nL of mRNAs (at 1 μg/μL). mRNAs were generated using the T7 (GluA1 and GluA2) and T3 (GluK2) mMessage mMachine transcription kits (Invitrogen) after cDNA linearization with the SacII restriction enzyme. The injected oocytes were stored in the same conditions as for NMDARs and used 72–96 h postinjection.
TEVC recordings were performed 1–3 days following injection. TEVC recordings were performed using an Oocyte Clamp amplifier OC-725 (Warner Instruments) and computer-controlled via a 1440A Digidata (Molecular Devices). Currents were sampled at 100 Hz and low-pass-filtered at 20 Hz using an 8-pole Bessel filter (900 Series, Frequency Devices Inc.). Data were collected with Clampfit 10.3. During the recording, the cells were continuously perfused with external recording Ringer solution at pH 7.3 (in mM: 100 NaCl, 0.3 BaCl2, 5 HEPES, and 2.5 KCl, pH adjustment to 7.3 by the addition of NaOH). The NMDA currents were induced by simultaneous application of L-glutamate and glycine (agonist solution) at saturating concentration (100 μM each), and DTPA (10 μM) to prevent receptor inhibition by ambient zinc (∼20 nM).[83] A control solution (100 μM glycine and 10 μM DTPA in Ringer pH 7.3) was used for washout of drug and test solutions. AMPA and kainate receptor currents were induced in the same conditions as NMDA currents (100 μM glutamate and glycine + 10 μM DTPA). Oocytes expressing GluK2 kainate receptors were treated with concanavalin A ([…], equivalent to 1.1 mg/mL) during 10 min before recording to decrease receptor desensitization. Unless notified, recordings were performed at a holding potential of −60 mV. All experiments were performed at room temperature. […]

T1 sequence (Q62645 28-1323, other chains not shown): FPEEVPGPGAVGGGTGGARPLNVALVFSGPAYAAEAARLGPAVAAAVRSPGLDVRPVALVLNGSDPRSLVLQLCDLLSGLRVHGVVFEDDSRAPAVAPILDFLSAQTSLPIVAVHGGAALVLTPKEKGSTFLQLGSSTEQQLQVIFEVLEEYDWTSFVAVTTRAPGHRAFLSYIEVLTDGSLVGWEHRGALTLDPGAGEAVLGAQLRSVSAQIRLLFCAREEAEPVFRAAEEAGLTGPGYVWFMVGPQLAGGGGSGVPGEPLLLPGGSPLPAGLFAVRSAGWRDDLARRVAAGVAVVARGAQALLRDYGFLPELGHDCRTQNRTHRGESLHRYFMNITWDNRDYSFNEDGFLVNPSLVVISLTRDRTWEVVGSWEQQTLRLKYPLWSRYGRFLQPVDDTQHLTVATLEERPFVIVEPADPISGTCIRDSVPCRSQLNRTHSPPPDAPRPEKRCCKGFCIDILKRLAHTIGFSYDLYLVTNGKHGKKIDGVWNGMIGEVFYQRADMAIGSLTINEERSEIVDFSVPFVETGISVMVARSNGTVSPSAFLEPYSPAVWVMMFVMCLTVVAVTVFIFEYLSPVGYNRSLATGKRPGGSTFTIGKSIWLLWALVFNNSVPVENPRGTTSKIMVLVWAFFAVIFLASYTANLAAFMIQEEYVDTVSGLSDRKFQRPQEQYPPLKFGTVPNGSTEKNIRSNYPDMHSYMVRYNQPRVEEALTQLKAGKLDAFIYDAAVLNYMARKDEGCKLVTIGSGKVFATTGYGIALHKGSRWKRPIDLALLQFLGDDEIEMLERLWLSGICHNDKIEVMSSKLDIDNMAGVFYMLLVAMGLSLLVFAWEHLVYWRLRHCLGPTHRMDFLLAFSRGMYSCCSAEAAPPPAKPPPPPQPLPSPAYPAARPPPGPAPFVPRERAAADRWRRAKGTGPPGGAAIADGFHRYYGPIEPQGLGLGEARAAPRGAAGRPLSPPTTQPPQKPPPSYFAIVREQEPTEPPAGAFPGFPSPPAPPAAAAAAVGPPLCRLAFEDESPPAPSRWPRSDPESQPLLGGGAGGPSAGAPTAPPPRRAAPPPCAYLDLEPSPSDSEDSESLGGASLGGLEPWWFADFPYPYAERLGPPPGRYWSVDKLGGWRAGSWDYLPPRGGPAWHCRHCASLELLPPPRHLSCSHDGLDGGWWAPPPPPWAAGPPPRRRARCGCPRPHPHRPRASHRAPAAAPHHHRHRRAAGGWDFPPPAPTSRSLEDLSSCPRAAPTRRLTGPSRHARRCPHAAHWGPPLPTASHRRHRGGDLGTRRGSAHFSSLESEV

Take `c1ccc(/N=N/c2ccc(CCNc3ccncc3)cc2)cc1` [OptoNAM-3, (E)-N-(4-(Phenyldiazenyl)phenethyl)pyridin-4-amine]: the “inhibition of GluN1/GluN2D” value at GluN1/GluN2D is listed as 2.2% ± 0.2%. Further, the inhibition at 10 µM on GluA1 AMPA receptors (10 µM OptoNAM-3 365 nm PSS, construct GluA1, read-out: Inhibition (%)) is -6%; on GluA1 AMPA receptors (10 µM OptoNAM-3 dark PSS (trans), construct GluA1, read-out: Inhibition (%)), -7.7%; on GluA1 AMPA receptors (10 µM, dark PSS, read-out: inhibition of GluA1 currents) it was -7.4 ± 2.7%. For the same compound, the “Inhibition, individual values” on GluA1 AMPA receptors (10 µM OptoNAM-3 dark PSS (trans) as headed, second block) is -0.02846 and -0.1048 and -0.04691; on GluA1 AMPA receptors (10 µM OptoNAM-3 dark PSS (trans), first block), -0.02273 and -0.0986 and -0.1111. The “inhibition of GluA1 currents” value at GluA1 AMPA receptors (10 µM, dark PSS) is “no effect”.
